{
  "source": "patent US9221811B2",
  "about": "“Chromone derivative having osteogenesis promoting effect” (Daiichi Sankyo Company, Limited, priority 2012, dated 2015)",
  "test_system": "female F344 rats",
  "experiment": "Effect on bone density (oophorectomized rats, femur, DXA)",
  "type": "in vivo, rat",
  "conditions": "25 mg/kg orally once a day, six days a week, six weeks, Dunnett's test",
  "protocol": "Eight to 12 week old female F344 rats were purchased from Charles River Laboratories Japan, Inc. and used in the following experiment.\nThis test was conducted at N=8. Rats were anesthetized by the intraperitoneal administration of 40 mg/kg of Somnopentyl (purchased from Kyoritsu Seiyaku Corporation), followed by oophorectomy.\nFrom the day after surgery, a control group received a 0.5% methyl cellulose solution (purchased from Wako Pure Chemical Industries, Ltd., Cat. No. 133-14255) alone, whereas another group received a suspension of the test compound in this solution (0.5% methyl cellulose solution), for the test.\nThe administration was performed orally once a day, six days a week. Six weeks after administration, the rats were euthanized by removal of whole blood from the lower abdominal aorta under Somnopentyl anesthesia, and the left and right femur was excised.\nAfter removal of soft tissues, the bone density of the femur thus excised was measured (apparatus: DXA apparatus DCS-600R manufactured by Aloka Co., Ltd.). The bone density was assessed in the whole femur as well as in three equal sections of the whole femur, namely the proximal end, the shaft, and the distal end.\nThe Dunnett's test was used in certification.",
  "data": [
    {"smiles": "COCC(=O)N1CCC(c2oc3c(C)c(O)ccc3c(=O)c2C)CC1", "note": "[Example 11, 7-Hydroxy-2-[1-(methoxyacetyl)piperidin-4-yl]-3,8-dimethyl-4H-chromen-4-one]", "values": [
      {"measurement": "bone density of the femur compared with the control group", "result": "significantly increased the bone density"}
    ]}
  ]
}
